Reference: publication PMC8179049 (Chemical Science, 2020)
Several values for one entry are separate records, joined by “and”; a condition that tells them apart may be missing. Identical values can stand only once. Like-named read-outs stand apart in the source and are kept apart here.

What was measured:
human AspH = molecular target: T1, human AspH (Homo sapiens, UniProt Q12797); experiment: SPE-MS AspH turnover assay in the absence of 2OG (2OG derivative as cosubstrate); details: 330 μM 2OG or 2OG derivative, 0.1 μM AspH, 2 μM hFX-CP101-119, 50 μM FAS, t = 15 min;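 further: percent conversion = hydroxylated cyclic peptide peak area relative to summed substrate plus product areas, taken from +2 charge state ion chromatograms by solid phase extraction MS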
T1 sequence (Q12797 315-758): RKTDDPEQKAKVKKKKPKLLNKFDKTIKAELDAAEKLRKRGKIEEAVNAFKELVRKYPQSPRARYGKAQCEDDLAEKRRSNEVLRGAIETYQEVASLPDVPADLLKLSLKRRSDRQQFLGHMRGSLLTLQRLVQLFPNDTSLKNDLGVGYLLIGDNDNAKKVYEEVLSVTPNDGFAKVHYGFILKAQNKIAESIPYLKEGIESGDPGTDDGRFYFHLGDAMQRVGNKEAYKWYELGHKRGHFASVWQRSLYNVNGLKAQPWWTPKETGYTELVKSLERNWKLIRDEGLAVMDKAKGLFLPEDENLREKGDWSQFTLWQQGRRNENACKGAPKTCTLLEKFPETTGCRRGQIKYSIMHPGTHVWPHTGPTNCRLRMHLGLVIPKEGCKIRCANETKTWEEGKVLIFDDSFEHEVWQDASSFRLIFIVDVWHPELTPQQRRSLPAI
Method: AspH assays were performed as described in the ESI, ^† data are shown as the mean of three independent runs (n = 3; mean ± standard deviation, SD).
AspH assays were performed as described in Section 9 of the Supporting Information using 0.1 μM AspH, 2 μM
a positive control in the SPE-MS AspH turnover assays (Entry 1).
dependent conversion of the AspH substrate hFX-CP101-119 (Supporting Figure S1d). %-Substrate conversion is
AspH assays were performed as
described in Section 9 of the Supporting Information using 0.1 μM AspH, 2 μM hFX-CP101-119, 50 μM FAS, 330
AspH inhibition assays were incubated for 6 rather than 7 minutes before the enzyme reaction was
stopped by the addition of 10%v/v aqueous formic acid.
MS-analyses were performed using a RapidFire RF 365 high-throughput sampling robot (Agilent) attached to an
iFunnel Agilent 6550 accurate mass quadrupole time-of-flight (Q-TOF) mass spectrometer operated in the positive
ionization mode. Assay samples were aspirated under vacuum for 0.4 s and loaded onto a C4 solid phase extraction (SPE) cartridge. After loading, the C4 SPE cartridge was washed with 0.1%v/v aqueous formic acid to remove
non-volatile buffer salts (5 s, 1.5 mL/min). The peptide was eluted from the SPE cartridge with 0.1%v/v aqueous
formic acid in 85/15v/v acetonitrile/water into the mass spectrometer (5 s, 1.25 mL/min) and the SPE cartridge re-
equilibrated with 0.1%v/v aqueous formic acid (1 s, 1.25 mL/min). The mass spectrometer parameters were:
capillary voltage (4000 V), nozzle voltage (1000 V), fragmentor voltage (365 V), gas temperature (280°C), gas
flow (13 L/min), sheath gas temperature (350°C), sheath gas flow (12 L/min). The m/z +2 charge states of the
cyclic peptide (substrate) and the hydroxylated cyclic peptide (product) were used to extract ion chromatogram
data, peak areas were integrated using RapidFire Integrator software (Agilent). Data were exported into Microsoft
Excel and used to calculate the % conversion of the hydroxylation reaction using the equation: % conversion =
100 x (integral product cyclic peptide) / (integral substrate cyclic peptide + integral product cyclic peptide).
Normalized dose-response curves (2,4-PDCA and DMSO controls) were obtained from the raw data by non-linear
regression (GraphPad Prism 5) and used to determine IC50-values. The standard deviation (SD) of three
independent IC50 determinations (n = 3) was calculated using GraphPad Prism 5. Z’-factors were calculated
according to the cited literature using Microsoft Excel (Supporting Figure S3).14

[1] = molecular target: T2, human AspH (His6-AspH315-758) (Homo sapiens, UniProt Q12797); experiment: SPE-MS AspH inhibition assay; type: biochemical; details: mean ± SD, n = 3
T2 construct: N-Terminally His6-tagged human AspH315-758 (His6-AspH315-758) was produced in Escherichia coli BL21 (DE3); made in house; host or cells: Escherichia coli BL21 (DE3), pET-28a(+) vector
T2 sequence (Q12797 315-758): T1 sequence (Q12797 315-758)
Method: 6. Recombinant AspH production and purification
N-Terminally His6-tagged human AspH315-758 (His6-AspH315-758) was produced in Escherichia coli BL21 (DE3) cells using a pET-28a(+) vector and purified by Ni(II)-affinity chromatography (HisTrap HP column, GE Healthcare; 1 mL/min flow rate) and size-exclusion chromatography (HiLoad 26/60 Superdex 75 pg 300 mL column; 1 mL/min) using an ÄKTA pure machine (GE Healthcare) as previously reported.1,4 AspH was >95% pure by SDS-PAGE and MS analysis and had the anticipated mass (calculated for His6-AspH315-758: 54519 Da, found: 54519 Da).1 Purified AspH was stored in 50 mM HEPES buffer (pH 7.5, 150 mM NaCl) at a concentration of 125 μM at -78 °C; fresh aliquots were used for all AspH assays.
7. AspH substrate synthesis
AspH substrates were designed based on the sequence of EGFD1 of human coagulation factor X (hFX amino acids 86-124), which is a reported cellular AspH substrate.2 All substrates were prepared with a C-terminal amide.
The hFX-EGFD186-124-4Ser peptide (hFX amino acids 86-124; Supporting Figure S1c),1 used for crystallography experiments, was synthesized by solid phase peptide synthesis (SPPS) and purified by GL Biochem (Shanghai) Ltd (Shanghai, China). The thioether linked cyclic peptide hFX-CP101-119 (hFX amino acids 101-119; Supporting
Figure S1d), which was used as substrate in AspH SPE-MS assays,4 was synthesized by an intramolecular thioetherification cyclization reaction from the corresponding linear peptide (D-Ala replacing Cys101hFX and Ser replacing Cys112hFX) which was obtained by microwave-assisted solid phase peptide synthesis using the Fmoc-protection strategy as described.4
8. AspH inhibition assays […]
water; ammonium iron(II) sulfate hexahydrate, FAS, (NH 4)2Fe(SO4)2·6H2O: 400 mM in 20 mM HCl diluted to 1 mM in Milli-Q® Ultrapure water) were freshly prepared each day from commercially sourced solids (Sigma […]
(Greiner) in an approximately three-fold and 11-point dilution series (100 μM top concentration) using an ECHO 550 acoustic dispenser (Labcyte). DMSO and 2,4 -PDCA were used as negative and positive controls , respectively .
The final DMSO concentration was kept constant at 0.5%v/v throughout all experiments (using the DMSO backfill option of the acoustic dispenser). Each reaction was performed in technical duplicates in adjacent wells of the assay plates; additionally, assays were performed in three independent technical duplicates on different days using different DMSO inhibitor solutions. […]
dispensed across the inhibitor-containing 384-well assay plates with a multidrop dispenser (ThermoFischer Scientific) at 20°C under an ambient atmosphere. The plates were subsequently centrifuged (1000 rpm, 30 s) and incubated for 15 minutes at 20°C. The Substrate Mixture (25 μL/well), containing 2.0 μM hFX-CP101-119, 200 μM […]
Note: The multidrop dispenser ensured proper mixing of the Enzyme and the Substrate Mixtures which was essential for assay reproducibility. The plates were centrifuged (1000 rpm, 30 s) and af ter incubating for 7 minutes, […]
centrifuged (1000 rpm, 60 s) and analysed by MS.
The mass spectrometer parameters were:
Data were exported into Microsoft
The standard deviation (SD) of three
Z’-factors were calculated
9. Determination of kinetic parameters […]
in 50 mM HEPES buffer (pH 7.5).

[2] = 50 nM His6-AspH315–758, 1.0 μM hFX-CP101–119, 3 μM 2OG, read-out: IC50 (inhibition of AspH)
[3] = 50 nM His6-AspH315–758, 1.0 μM hFX-CP101–119, 3 μM 2OG
[4] = 50 nM His6-AspH315-758, 1.0 μM hFX-CP101-119, read-out: IC50 (ESI Fig. S4)
[5] = IC50 at 200 μM 2OG (ESI Table S1), assay concentration of 200 μM 2OG
[6] = IC50 at 400 μM 2OG (ESI Table S1), assay concentration of 400 μM 2OG
[7] = IC50 at 600 μM 2OG (ESI Table S1), assay concentration of 600 μM (0.6 mM) 2OG

Structure (SMILES) | AspH-catalyzed substrate conversion (hydroxylation of hFX-CP101-119) (human AspH) [%] | IC50 [1, 2] | melting point | IC50 (inhibition of AspH) [1, 3] | also measured
CCCC(CC(=O)O)C(=O)C(=O)O (centres unmarked) [compound 18] | < 1 | ~5.7 µM and 5.7 µM |  |  | 
O=C(O)CC(CCCc1ccccc1)C(=O)C(=O)O (centres unmarked) [compound 20] | < 1 | ~6.8 µM and 6.8 µM | > 220 °C (dec.) |  | 
CC(CC(=O)C(=O)O)C(=O)O (centres unmarked) [compound 26, 4-methyl-2OG] | ~10 |  |  | did not inhibit | IC50 (inhibition of AspH) ([1]; 50 nM His6-AspH315–758, 1.0 μM hFX-CP101–119, 3 μM 2OG, listed as C00031): Inactive
CC(C)(NC(=O)C(=O)O)C(=O)O [compound 49, N-oxalyl-α-methylalanine] |  | ~2.9 µM |  |  | IC50 [1, 4]: 2.9 ± 1.3 µM
O=C(O)C(=O)C1(C(=O)O)CC1 [compound 48] | < 1 | ~3.3 µM and 3.3 µM |  |  | 
CC1(C)C(C(=O)O)C1C(=O)C(=O)O (centres unmarked) [compound 35] | < 1 | ~5.2 µM and 5.2 µM |  |  | 
CC(C)(C)CCC(CC(=O)O)C(=O)C(=O)O (centres unmarked) [compound 19] | < 1 | ~48.2 µM and 48.2 µM |  |  | 
O=C(O)CNC(=O)C(=O)O [NOG, N-oxalylglycine, reference compound] |  | ~1 µM |  |  | IC50 [1, 4]: 0.99 ± 0.31 µM
CC(C)CC(CC(=O)C(=O)O)C(=O)O (centres unmarked) [compound 29] | < 1 | 0.51 ± 0.12 µM |  |  | IC50 [1, 5]: 10.8 ± 2.7 µM; IC50 [1, 6]: 16.8 ± 2.5 µM; IC50 [1, 7]: 26.9 ± 7 µM
O=C(O)C(=O)C12CCC(C(=O)O)(CC1)CC2 [compound 47] | ~8 |  | > 300 °C (dec.) | did not inhibit | IC50 (inhibition of AspH) ([1]; 50 nM His6-AspH315–758, 1.0 μM hFX-CP101–119, 3 μM 2OG, listed as C00030): Inactive
CCCC(CC(=O)C(=O)O)C(=O)O (centres unmarked) [compound 28] | < 1 | 0.47 ± 0.08 µM |  |  | 
CCC(CC(=O)O)C(=O)C(=O)O (centres unmarked) [compound 17, 3-ethyl-2OG] | < 1 | ~1.2 µM and 1.2 µM |  |  | IC50 [1, 5]: 22.4 ± 3.2 µM; IC50 [1, 6]: 35.3 ± 9.9 µM; IC50 [1, 7]: 54.9 ± 10.8 µM
O=C(O)CC(Cc1ccc(OC(F)(F)F)cc1)C(=O)C(=O)O (centres unmarked) [compound 23] | < 1 | 6.3 ± 2.6 µM | > 260 °C (dec.) |  | 
CC(C)(C)CCC(CC(=O)C(=O)O)C(=O)O (centres unmarked) [compound 30] | < 1 | 0.7 ± 0.11 µM |  |  | 
O=C(O)C(=O)[C@@H]1[C@@H](C(=O)O)[C@@H]2C=C[C@H]1C2 (racemic) [compound 36] | < 1 | ~19.3 µM and 19.3 µM |  |  | 
CCC(CC(=O)C(=O)O)C(=O)O (centres unmarked) [compound 27] | < 1 | 0.61 ± 0.09 µM |  |  | 

Further lines, with some results ahead:

AspH-catalyzed substrate conversion (hydroxylation of hFX-CP101-119) (human AspH) [%] | IC50 [1, 2] | melting point | IC50 (inhibition of AspH) [1, 3] | Structure (SMILES) | also measured
< 1 | ~1.6 µM and 1.6 µM | > 250 °C (dec.) |  | O=C(O)CC(Cc1ccccc1)C(=O)C(=O)O (centres unmarked) [compound 21] | 
~8 |  |  | Inactive | O=C(O)C(=O)c1ccc(C(=O)O)c(Br)c1 [compound 45] | 
~15 | ~12.9 µM and 12.9 µM | > 285 °C (dec.) |  | O=C(O)C(=O)c1ccc(C(=O)O)s1 [compound 38] | 
< 1 | 4.7 ± 0.2 µM |  |  | Cc1cc(C)cc(CC(CC(=O)O)C(=O)C(=O)O)c1 (centres unmarked) [compound 25] | 
< 1 |  |  | did not inhibit | O=C(O)C(=O)c1cscc1C(=O)O [compound 37] | IC50 (inhibition of AspH) ([1]; 50 nM His6-AspH315–758, 1.0 μM hFX-CP101–119, 3 μM 2OG, listed as C00032): Inactive
~45 |  | > 310 °C (dec.) | Inactive | O=C(O)C(=O)c1ccc(C(=O)O)cc1F [compound 42] | 
< 1 | 0.17 ± 0.03 µM | > 220 °C (dec.) |  | O=C(O)C(=O)CC(Cc1ccc2ccccc2c1)C(=O)O (centres unmarked) [compound 33] | IC50 [1, 5]: 2.5 ± 0.4 µM; IC50 [1, 6]: 3.1 ± 0.3 µM; IC50 [1, 7]: 5.6 µM and ~5.6 µM
~5 |  | > 320 °C (dec.) | Inactive | Cc1cc(C(=O)O)ccc1C(=O)C(=O)O [compound 46] | 
< 1 |  |  | did not inhibit | O=C(O)C(=O)c1cccc(C(=O)O)c1 [compound 40, 3-carboxyphenylglyoxylic acid] | IC50 (inhibition of AspH) ([1]; 50 nM His6-AspH315–758, 1.0 μM hFX-CP101–119, 3 μM 2OG, listed as C00009): Inactive
< 1 | 2.6 ± 0.8 µM | > 250 °C (dec.) |  | O=C(O)CC(Cc1ccc(F)cc1)C(=O)C(=O)O (centres unmarked) [compound 22] | 
~20 |  | > 300 °C (dec.) | Inactive | O=C(O)C(=O)c1ccc(C(=O)O)cc1Br [compound 44] | 
~8 |  | > 260 °C (dec.) | Inactive | O=C(O)C(=O)c1ccc(C(=O)O)c(F)c1 [compound 43] | 
< 1 |  |  | did not inhibit | O=C(O)C(=O)c1ccccc1C(=O)O [compound 39] | IC50 (inhibition of AspH) ([1]; 50 nM His6-AspH315–758, 1.0 μM hFX-CP101–119, 3 μM 2OG, listed as C00006): Inactive
< 1 | 3.6 ± 1.4 µM | > 260 °C (dec.) |  | COc1ccc(CC(CC(=O)O)C(=O)C(=O)O)cc1 (centres unmarked) [compound 24] | 
